From patent US20250268261A1, “METHODS FOR THE CONTROL OF POA ANNUA IN WARM SEASON TURFGRASS USING THIENCARBAZONE-METHYL” (Discovery Purchaser Corporation, priority 2024, published 2025)

Tests used:
Type in all cases: in vivo
Poa annua [1] = experiment: Field trial, bermudagrass stands infested with Poa annua, Blacksburg, Virginia, autumn 2022; settings: FIG. 10
Description: (§1) As used herein, the term “Abbott's percentage reduction,” in all of its forms, refers to a measure of percentage control relative to the population in an untreated control stand of turfgrass. Rather than representing a simple percentage control on a per treatment basis, the Abbott's percentage reduction measure accounts for naturally occurring shifts in the target population and limits rating bias over time. Abbott's percentage reduction may be represented by the following
Stands of bermudagrass infested with Poa annua were treated with thiencarbazone-methyl (TCM) at different stages of Poa annua development and under different climatological conditions in a set of trials conducted during the autumn of 2022 in Blacksburg, Virginia. Stands of bermudagrass containing Poa annua in a pre-emergent growth phase were treated with thiencarbazone-methyl (TCM) on September 14th. Stands of bermudagrass containing Poa annua in an early post-emergent growth state characterized by having two or fewer tillers were treated with thiencarbazone-methyl (TCM) on October 5th. Stands of bermudagrass containing Poa annua in a late post-emergent growth state characterized by having more than two tillers were treated with thiencarbazone-methyl (TCM) on November 9th. The Blacksburg trial data is shown in FIG. 10 while FIG. 12 provides the corresponding environmental data for Blacksburg during the trials. The Days After Application “DAA” shown in FIG. 10 refers to the days after thiencarbazone-methyl (TCM) was applied to the stands of bermudagrass containing Poa annua in a pre-emergent growth phase on Sep. 14, 2022. The horizontal line in FIG. 12 represents the temperature (66 degrees Fahrenheit) at which peak Poa annua germination has been observed. […] However, treatment of bermudagrass stands containing Poa annua at a later growth stage fell well below the minimum commercially acceptable 80% Abbott control threshold effectiveness.

Poa annua [2] = experiment: Field trial, bermudagrass stands infested with Poa annua, Clayton, North Carolina, autumn 2022; settings: FIG. 11
Description: as §1
Stands of bermudagrass infested with Poa annua were treated with thiencarbazone-methyl (TCM) at different stages of Poa annua development and under different climatological conditions in a set of trials conducted during the autumn of 2022 in Clayton, North Carolina. Stands of bermudagrass containing Poa annua in a pre-emergent growth phase were treated with thiencarbazone-methyl (TCM) on September 23rd. Stands of bermudagrass containing Poa annua in an early post-emergent growth state characterized by having two or fewer tillers were treated with thiencarbazone-methyl (TCM) on November 21st. Stands of bermudagrass containing Po annua in a late post-emergent growth state characterized by having more than two tillers were treated with thiencarbazone-methyl (TCM) on December 8th. The Clayton trial data is shown in FIG. 11 while FIG. 13 provides the corresponding environmental data for Clayton during the trials. […]

Poa annua [3] = experiment: Single application to warm season turfgrass according to the disclosed methods (summary statement); settings: early post-emergence, for at least 120 days following application

COC(=O)c1csc(C)c1S(=O)(=O)NC(=O)n1nc(OC)n(C)c1=O [thiencarbazone-methyl, methyl 4-[(3-methoxy-4-methyl-5-oxo-1,2,4-triazole-1-carbonyl)sulfamoyl]-5-methylthiophene-3-carboxylate]
Abbott control threshold effectiveness (Poa annua [1]; 15 g/ha, early post-emergent growth phase (two or fewer tillers, treated October 5), 77, 91 and 148 days after the pre-emergence treatment application): ≥ 80%
Abbott control threshold effectiveness (Poa annua [1]; 30 g/ha, early post-emergent growth phase (two or fewer tillers, treated October 5), 77, 91 and 148 days after the pre-emergence treatment application): ≥ 80%
Abbott control threshold effectiveness (Poa annua [1]; Poa annua at a later growth stage (more than two tillers, treated November 9)): < 80%
Abbott control threshold effectiveness (Poa annua [2]; 30 g/ha, early post-emergent growth phase (two or fewer tillers, treated November 21), 117 days after the pre-emergence treatment application): ≥ 80%
Abbott control threshold effectiveness (Poa annua [2]; Poa annua at a later growth stage (more than two tillers, treated December 8)): < 80%
reduction in Poa annua population (Poa annua [3]): ≥ 80%
